Laboratory results published in ChEMBL document CHEMBL3046183, “2,4,6-Trihydroxybenzaldehyde as a potent antidiabetic agent alleviates postprandial hyperglycemia in normal and diabetic rats” (Med Chem Res, 2011).
Values belong to the compound of their own block, whether it stands above or below them. Activity calls are given as the source filed them. The rule behind the calls is not given here.

Tests used:
[1] = Inhibition of alpha-glucosidase (unknown origin) using PNPG as substrate assessed as p-nitrophenol release from substrate after 30 min; parameters: species or system Homo sapiens
Rattus norvegicus [2] = test: Antidiabetic activity in Rattus norvegicus Sprague-Dawley (rat) streptozotocin-induced diabetic model assessed as reduction of blood glucose level at 50 mg/kg administered intragastrically after 30 min (reference value: 378.2 to 594.7 mg/dl); type: functional; details: route intragastric
Rattus norvegicus [3] = test: Antihyperglycemic activity in maltose treated Rattus norvegicus Sprague-Dawley (rat) assessed as reduction of postprandial blood glucose level at 50 mg/kg administered intragastrically immediately after maltose load after 2 hr; type: functional, organism-based; parameters: dose 50 mg/kg
Rattus norvegicus [4] = test: Antidiabetic activity in maltose loaded Rattus norvegicus Sprague-Dawley (rat) streptozotocin-induced diabetic model assessed as reduction of blood glucose level at 50 mg/kg administered intragastrically immediately after maltose load after 2 hr; type: functional, organism-based; parameters: dose 50 mg/kg
Rattus norvegicus [5] = test: Antihyperglycemic activity in glucose treated Rattus norvegicus Sprague-Dawley (rat) assessed as reduction of postprandial blood glucose level at 50 mg/kg administered intragastrically immediately after glucose load after 30 min (reference value: 95.7 to 182.3 mg/dl); type: functional; details: route intragastric
Homo sapiens = species: Homo sapiens; test: Noncompetitive inhibition of alpha-glucosidase (unknown origin) using PNPG as substrate by Lineweaver-Burk plot analysis
Rattus norvegicus [6] = test: Antihyperglycemic activity in glucose treated Rattus norvegicus Sprague-Dawley (rat) assessed as reduction of postprandial blood glucose level at 20 mg/kg administered intragastrically immediately after glucose load after 30 min (reference value: 95.7 to 182.3 mg/dl); type: functional; details: route intragastric
Rattus norvegicus [7] = test: Antidiabetic activity in Rattus norvegicus Sprague-Dawley (rat) streptozotocin-induced diabetic model assessed as reduction of blood glucose level at 20 mg/kg administered intragastrically after 30 min (reference value: 378.2 to 594.7 mg/dl); type: functional; details: route intragastric
Rattus norvegicus [8] = test: Antidiabetic activity in maltose loaded Rattus norvegicus Sprague-Dawley (rat) streptozotocin-induced diabetic model assessed as reduction of blood glucose level at 20 mg/kg administered intragastrically immediately after maltose load after 2 hr; type: functional, organism-based; parameters: dose 20 mg/kg
[9] = test system: Radical scavenging activity; test: Antioxidant activity assessed as DPPH radical scavenging activity after 30 min; type: functional
Rattus norvegicus [10] = test: Antihyperglycemic activity in maltose treated Rattus norvegicus Sprague-Dawley (rat) assessed as reduction of postprandial blood glucose level at 20 mg/kg administered intragastrically immediately after maltose load after 2 hr; type: functional, organism-based; parameters: dose 20 mg/kg

SMILES: O=C(O)c1cc(O)c(O)c(O)c1 [GALLIC ACID]
IC50 [1]: 112 µM

SMILES: O=C(OC[C@H]1O[C@@H](OC(=O)c2cc(O)c(O)c(O)c2)[C@H](OC(=O)c2cc(O)c(O)c(O)c2)[C@@H](OC(=O)c2cc(O)c(O)c(O)c2)[C@@H]1OC(=O)c1cc(O)c(O)c(O)c1)c1cc(O)c(O)c(O)c1 [PENTAGALLOYL GLUCOSE]
IC50 [1]: 0.39 µM

SMILES: C[C@H]1O[C@H](O[C@H]2[C@H](O)[C@@H](O)[C@@H](O[C@H]3[C@H](O)[C@@H](O)C(O)O[C@@H]3CO)O[C@@H]2CO)[C@H](O)[C@@H](O)[C@@H]1N[C@H]1C=C(CO)[C@@H](O)[C@H](O)[C@H]1O (some centres undefined) [ACARBOSE]
Activity (Rattus norvegicus [2]): 372.1 mg/dL | Activity (Rattus norvegicus [3]): Active | Activity (Rattus norvegicus [4]): Active | Activity (Rattus norvegicus [5]): 97.5 mg/dL

IC50 [1]: 2380 µM
SMILES: COc1cc(OC)c(C=O)c(OC)c1 [2,4,6-TRIMETHOXYBENZALDEHYDE]

IC50 [1]: 4.6 µM | inhibition (Homo sapiens): Active | IC50 [9]: 71.4 µM
SMILES: O=Cc1c(O)cc(O)cc1O [PHLOROGLUCINALDEHYDE]
Activity (Rattus norvegicus [6]): 96.5 mg/dL | Activity (Rattus norvegicus [7]): 367.9 mg/dL | Activity (Rattus norvegicus [8]): inactive | Activity (Rattus norvegicus [10]): inactive
